In the test the test system is ApoB mRNA level in the liver. Description: Liver ApoB mRNA knockdown by 1:57 SNALP with ApoB siRNA in mice (QuantiGene assay, normalized to GAPDH mRNA). It is filed as in vivo, female BALB/c mice. To be noted: IV bolus 0.05 mg/kg siRNA, mouse liver 48 h after dosing, compared to SNALP containing the C2K benchmark cationic lipid. As to the method: In particular, the objective of this study was to assess the ApoB dose response gene silencing activity in the mouse liver of 1:57 SNALP containing various novel trialkyl cationic lipids of Formula I. The ApoB siRNA sequence used in this study is provided in Table 1.
Just prior to the first treatment, animals were weighed and dose amounts were calculated based on the weight of individual animals (equivalent to 10 mL/kg, rounded to the nearest 10 μL). The test article was administered by IV injection through the tail vein once on Day 0 (1 dose total per animal).
Animals were sacrificed on Day 2, 48 h after test article administration. […] A brief necropsy was performed and observations recorded. […]
Body weight was reported for individual animals in addition to group mean and standard deviation of the group mean. Data were expressed in terms of the measured unit (grams) and the group mean difference from PBS vehicle control treatment was calculated for this expression (include SD). For body weights, individual animal data were also expressed as % of pre-treatment value and the group means were expressed as % change from pre-treatment value (include SD). […] Drug activity was measured using a QuantiGene assay for ApoB mRNA level in the liver (normalized to GAPDH mRNA level). […] Data were expressed in terms of the measured unit as well as difference from PBS vehicle control treatment. […]

From patent US8466122B2, “Trialkyl cationic lipids and methods of use thereof” (Protiva Biotherapeutics, Inc., priority 2010, dated 2013) come the findings set out here.

SMILES strings stand for the structures.

Regarding `CCCCC/C=C\C/C=C\CCCCCCCCC(OC(=O)CCCCN(C)C)C(O)(CCCCCCCC/C=C\C/C=C\CCCCC)CCCCCCCC/C=C\C/C=C\CCCCC` (stereo not shown) [Compound 13-B4, (6Z,9Z,29Z,32Z)-20-hydroxy-20-((9Z,12Z)-octadeca-9,12-dienyl)octatriaconta-6,9,29,32-tetraen-19-yl 5-(dimethylamino)pentanoate], the “liver ApoB mRNA knockdown activity (ApoB silencing activity)” value is recorded as “unexpectedly improved ApoB silencing activity”.
